Reference: patent US20190125888A1, “TARGETED CONJUGATES AND PARTICLES AND FORMULATIONS THEREOF” (priority 2015, published 2019)
Where two headings read alike, the source gives them in different places.

Legend:
human SSTR2 = human SSTR2 (Homo sapiens, UniProt P30874); test: Radioligand-receptor binding assay, [125I] somatostatin, membranes from SSTR2 expressing CHO-K1 cells
How it was run: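 CHO-K1 SSTR2 membranes incubated 4 h with 0.03 nM [125I] somatostatin and conjugates in a 10-point, 6-fold series from 10 uM. Bound radioligand measured after filtration and washing; IC50 by non-linear least-squares regression.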

[1] = Ligand charge of maytansinoid conjugates; assay type: physicochemical
[2] = tested on: NCI-H524 (ATCC) human lung cancer cells; assay type: cell-based
How it was run: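 NCI-H524 cells (5,000/well) exposed to conjugates for 6 hours, washed, then grown a further 66 hours; ten-point threefold dilutions from 20 μM. Proliferation by CellTiter-Glo versus vehicle; IC50 by four-parameter nonlinear regression, measured with and without octreotide competition.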

[3] = Chrom LogP of maytansinoid conjugates; assay type: physicochemical
[4] = read-out: H524 IC50 6 h, 6 hours treatment, further 66 hours incubation
[5] = read-out: H524 IC50 with 100 μM octreotide 6 h, with 100 μM octreotide competition, 6 h treatment

Sequence of human SSTR2 (P30874 whole entry): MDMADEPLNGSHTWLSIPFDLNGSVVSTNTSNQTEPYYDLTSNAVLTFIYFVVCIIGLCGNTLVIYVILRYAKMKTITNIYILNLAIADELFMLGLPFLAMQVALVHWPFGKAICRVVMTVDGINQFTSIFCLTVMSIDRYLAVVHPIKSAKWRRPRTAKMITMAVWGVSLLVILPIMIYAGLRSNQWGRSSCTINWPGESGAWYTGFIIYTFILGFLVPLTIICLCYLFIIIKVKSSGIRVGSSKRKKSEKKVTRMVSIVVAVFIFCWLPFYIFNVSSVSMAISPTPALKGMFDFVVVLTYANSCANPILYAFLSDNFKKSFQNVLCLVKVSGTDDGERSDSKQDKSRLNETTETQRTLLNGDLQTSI

Structure (SMILES) | Ki (human SSTR2) [nM] | Ligand charge [1] | IC50 [2, 4] [nM] | IC50 [2, 5] [nM] | chromatographic logP [3]
COc1cc2cc(c1Cl)N(C)C(=O)C[C@H](OC(=O)[C@H](C)N(C)C(=O)CCSSC[C@H](NC(=O)[C@@H]1CSSC[C@H](NC(=O)[C@H](N)Cc3ccccc3)C(=O)N[C@@H](Cc3ccc(O)cc3)C(=O)N[C@H](Cc3c[nH]c4ccccc34)C(=O)N[C@@H](CCCCNC(=O)NCCCCCCN)C(=O)N[C@@H]([C@@H](C)O)C(=O)N1)C(N)=O)[C@]1(C)O[C@H]1[C@H](C)[C@@H]1C[C@@](O)(NC(=O)O1)[C@H](OC)/C=C/C=C(\C)C2 [Conjugate 56] | 1900 | +2 | 246 | 361 | 1.92
COc1cc2cc(c1Cl)N(C)C(=O)C[C@H](OC(=O)[C@H](C)N(C)C(=O)CCSSC[C@H](NC(=O)[C@@H]1CSSC[C@H](NC(=O)[C@@H](Cc3ccccc3)NC(=O)NCc3ccc(C(F)(F)F)cc3)C(=O)N[C@@H](Cc3ccc(O)cc3)C(=O)N[C@H](Cc3c[nH]c4ccccc34)C(=O)N[C@@H](CCCCN)C(=O)N[C@@H]([C@@H](C)O)C(=O)N1)C(N)=O)[C@]1(C)O[C@H]1[C@H](C)[C@@H]1C[C@@](O)(NC(=O)O1)[C@H](OC)/C=C/C=C(\C)C2 [Conjugate 37] | 0.16 | +1 | 3.7 | 93 | 3.07
CCNC(=O)N[C@H](Cc1ccccc1)C(=O)N[C@H]1CSSC[C@@H](C(=O)N[C@H](C(N)=O)C(C)(C)SSCCC(=O)N(C)[C@@H](C)C(=O)O[C@H]2CC(=O)N(C)c3cc(cc(OC)c3Cl)C/C(C)=C/C=C/[C@@H](OC)[C@@]3(O)C[C@H](OC(=O)N3)[C@@H](C)[C@@H]3O[C@@]23C)NC(=O)[C@H]([C@@H](C)O)NC(=O)[C@H](CCCCN)NC(=O)[C@@H](Cc2c[nH]c3ccccc23)NC(=O)[C@H](Cc2ccc(O)cc2)NC1=O [Conjugate 13] | 0.018 | +1 | 6.5 | 340 | 2.67
COc1cc2cc(c1Cl)N(C)C(=O)C[C@H](OC(=O)[C@H](C)N(C)C(=O)CCSSC[C@H](NC(=O)[C@@H]1CSSC[C@H](NC(=O)[C@@H](Cc3ccccc3)NC(=O)Nc3ccccc3)C(=O)N[C@@H](Cc3ccc(O)cc3)C(=O)N[C@H](Cc3c[nH]c4ccccc34)C(=O)N[C@@H](CCCCN)C(=O)N[C@@H]([C@@H](C)O)C(=O)N1)C(N)=O)[C@]1(C)O[C@H]1[C@H](C)[C@@H]1C[C@@](O)(NC(=O)O1)[C@H](OC)/C=C/C=C(\C)C2 [Conjugate 42] | 0.042 | +1 | 1.7 | 115 | 2.87
COc1cc2cc(c1Cl)N(C)C(=O)C[C@H](OC(=O)[C@H](C)N(C)C(=O)CCSSC[C@H](NC(=O)[C@@H]1CSSC[C@H](NC(=O)[C@@H](Cc3ccccc3)NC(=O)NCc3ccccc3)C(=O)N[C@@H](Cc3ccc(O)cc3)C(=O)N[C@H](Cc3c[nH]c4ccccc34)C(=O)N[C@@H](CCCCN)C(=O)N[C@@H]([C@@H](C)O)C(=O)N1)C(N)=O)[C@]1(C)O[C@H]1[C@H](C)[C@@H]1C[C@@](O)(NC(=O)O1)[C@H](OC)/C=C/C=C(\C)C2 [Conjugate 28] | 0.057 | +1 | 6.1 | 31 | 2.51
COc1cc2cc(c1Cl)N(C)C(=O)C[C@H](OC(=O)[C@H](C)N(C)C(=O)CCSSC(C)(C)[C@H](NC(=O)[C@@H]1CSSC[C@H](NC(=O)[C@H](N)Cc3ccccc3)C(=O)N[C@@H](Cc3ccc(O)cc3)C(=O)N[C@H](Cc3c[nH]c4ccccc34)C(=O)N[C@@H](CCCCNC(=O)NCCCCCCN)C(=O)N[C@@H]([C@@H](C)O)C(=O)N1)C(N)=O)[C@]1(C)O[C@H]1[C@H](C)[C@@H]1C[C@@](O)(NC(=O)O1)[C@H](OC)/C=C/C=C(\C)C2 [Conjugate 57] | 69 | +2 | 408 | 652 | 2.12
COc1cc2cc(c1Cl)N(C)C(=O)C[C@H](OC(=O)[C@H](C)N(C)C(=O)CCSSC(C)(C)[C@H](NC(=O)[C@@H]1CSSC[C@H](NC(=O)[C@@H](Cc3ccccc3)NC(=O)Nc3ccccc3)C(=O)N[C@@H](Cc3ccc(O)cc3)C(=O)N[C@H](Cc3c[nH]c4ccccc34)C(=O)N[C@@H](CCCCN)C(=O)N[C@@H]([C@@H](C)O)C(=O)N1)C(N)=O)[C@]1(C)O[C@H]1[C@H](C)[C@@H]1C[C@@](O)(NC(=O)O1)[C@H](OC)/C=C/C=C(\C)C2 [Conjugate 11] | 0.034 | +1 | 6.1 | 232 | 2.98
COc1cc2cc(c1Cl)N(C)C(=O)C[C@H](OC(=O)[C@H](C)N(C)C(=O)CCC(C)(C)SSC[C@H](NC(=O)[C@@H]1CSSC[C@H](NC(=O)[C@H](N)Cc3ccccc3)C(=O)N[C@@H](Cc3ccc(O)cc3)C(=O)N[C@H](Cc3c[nH]c4ccccc34)C(=O)N[C@@H](CCCCN)C(=O)N[C@@H]([C@@H](C)O)C(=O)N1)C(N)=O)[C@]1(C)O[C@H]1[C@H](C)[C@@H]1C[C@@](O)(NC(=O)O1)[C@H](OC)/C=C/C=C(\C)C2 [Conjugate 4] | 0.075 | +2 | 78 | 348 | 2.21
COc1cc2cc(c1Cl)N(C)C(=O)C[C@H](OC(=O)[C@H](C)N(C)C(=O)CCSSC[C@H](NC(=O)[C@@H]1CSSC[C@H](NC(=O)[C@@H](Cc3ccccc3)NC(=O)NC3CCCCC3)C(=O)N[C@@H](Cc3ccc(O)cc3)C(=O)N[C@H](Cc3c[nH]c4ccccc34)C(=O)N[C@@H](CCCCN)C(=O)N[C@@H]([C@@H](C)O)C(=O)N1)C(N)=O)[C@]1(C)O[C@H]1[C@H](C)[C@@H]1C[C@@](O)(NC(=O)O1)[C@H](OC)/C=C/C=C(\C)C2 [Conjugate 25] | 0.11 | +1 | 32 | 123 | 2.94
CCNC(=O)N[C@H](Cc1ccccc1)C(=O)N[C@H]1CSSC[C@@H](C(=O)N[C@@H](CSSCCC(=O)N(C)[C@@H](C)C(=O)O[C@H]2CC(=O)N(C)c3cc(cc(OC)c3Cl)C/C(C)=C/C=C/[C@@H](OC)[C@@]3(O)C[C@H](OC(=O)N3)[C@@H](C)[C@@H]3O[C@@]23C)C(=O)NCC)NC(=O)[C@H]([C@@H](C)O)NC(=O)[C@H](CCCCN)NC(=O)[C@@H](Cc2c[nH]c3ccccc23)NC(=O)[C@H](Cc2ccc(O)cc2)NC1=O [Conjugate 30] | 0.071 | +1 | 2.4 | 27 | 2.79
COc1cc2cc(c1Cl)N(C)C(=O)C[C@H](OC(=O)[C@H](C)N(C)C(=O)CCSSC(C)(C)[C@H](NC(=O)[C@@H]1CSSC[C@H](NC(=O)[C@@H](Cc3ccccc3)NC(=O)NCc3ccccc3)C(=O)N[C@@H](Cc3ccc(O)cc3)C(=O)N[C@H](Cc3c[nH]c4ccccc34)C(=O)N[C@@H](CCCCN)C(=O)N[C@@H]([C@@H](C)O)C(=O)N1)C(N)=O)[C@]1(C)O[C@H]1[C@H](C)[C@@H]1C[C@@](O)(NC(=O)O1)[C@H](OC)/C=C/C=C(\C)C2 [Conjugate 7] | 0.025 | +1 | 4.7 | 181 | 2.6
COc1cc2cc(c1Cl)N(C)C(=O)C[C@H](OC(=O)[C@H](C)N(C)C(=O)CCSSC(C)(C)[C@H](NC(=O)[C@@H]1CSSC[C@H](NC(=O)[C@@H](Cc3ccccc3)NCc3ccccc3)C(=O)N[C@@H](Cc3ccc(O)cc3)C(=O)N[C@H](Cc3c[nH]c4ccccc34)C(=O)N[C@@H](CCCCN)C(=O)N[C@@H]([C@@H](C)O)C(=O)N1)C(N)=O)[C@]1(C)O[C@H]1[C@H](C)[C@@H]1C[C@@](O)(NC(=O)O1)[C@H](OC)/C=C/C=C(\C)C2 [Conjugate 12] | 0.02 | +2 | 19.5 | 331 | 2.57
COc1cc2cc(c1Cl)N(C)C(=O)C[C@H](OC(=O)[C@H](C)N(C)C(=O)CCSSC(C)(C)[C@H](NC(=O)[C@@H]1CSSC[C@H](NC(=O)[C@@H](Cc3ccccc3)NS(=O)(=O)Cc3ccc(C(F)(F)F)cc3)C(=O)N[C@@H](Cc3ccc(O)cc3)C(=O)N[C@H](Cc3c[nH]c4ccccc34)C(=O)N[C@@H](CCCCN)C(=O)N[C@@H]([C@@H](C)O)C(=O)N1)C(N)=O)[C@]1(C)O[C@H]1[C@H](C)[C@@H]1C[C@@](O)(NC(=O)O1)[C@H](OC)/C=C/C=C(\C)C2 [Conjugate 14] | 0.041 | +1 | 14 | 331 | 3.23
COc1cc2cc(c1Cl)N(C)C(=O)C[C@H](OC(=O)[C@H](C)N(C)C(=O)CCSSC[C@H](NC(=O)[C@@H]1CSSC[C@H](NC(=O)[C@@H](Cc3ccccc3)NS(C)(=O)=O)C(=O)N[C@@H](Cc3ccc(O)cc3)C(=O)N[C@H](Cc3c[nH]c4ccccc34)C(=O)N[C@@H](CCCCN)C(=O)N[C@@H]([C@@H](C)O)C(=O)N1)C(N)=O)[C@]1(C)O[C@H]1[C@H](C)[C@@H]1C[C@@](O)(NC(=O)O1)[C@H](OC)/C=C/C=C(\C)C2 [Conjugate 34] | 0.18 | +1 | 13 | 83 | 2.57
